Experimental data: ChEMBL document CHEMBL3988442, “University of Dundee, Small-Polar-MMV Screening Library” (2021)
Values joined by “and” are separate entries in the source; they are usually repeats but may differ in a detail not shown here. Identical values can stand only once.

Columns and labels:
[1] = molecular target: Polyketide synthase Pks13 (Mycobacterium tuberculosis (strain ATCC 25618 / H37Rv), UniProt I6X8D2); test: Mycobacterium tuberculosis Polyketide synthase 13 Thioesterase (PKS13); type: functional
ClpP1P2 = ClpP1P2 (Mycobacterium tuberculosis (strain ATCC 25618 / H37Rv), UniProt P9WPC3+P9WPC5); test: in vitro assay to detect presence of AMC directly proportional to the activity of ClpP1P2. GHDDI collaboration.; type: functional
[2] = In vitro enzyme assay to detect hydrolysis of chlorophenol red-beta-D-[…] directly proportional to the number of Toxoplasma stably expressing beta-galactosidase; type: functional, organism-based, Toxoplasma gondii; settings: for IC50: Toxoplasma gondii
[3] = microbe, parasite or virus in culture; settings: Mycobacterium tuberculosis, 96 h, read-out: pIC50 (converted)
[4] = microbe, parasite or virus in culture; settings: Mycobacterium tuberculosis, 72 h, read-out: pIC50 (converted)
Plasmodium falciparum = test: Calibr Malaria Delayed Death Assay SOP; type: functional, organism-based; settings: for IC50: Plasmodium falciparum
Tryptophan--tRNA ligase = Tryptophan--tRNA ligase (Mycobacterium tuberculosis (strain ATCC 25618 / H37Rv), UniProt P9WFT3); test: Biochemical assay for Mt-TrpRS; type: functional
Leishmania donovani = test: Leishmania intramacrophage assay; type: functional, organism-based; settings: Leishmania donovani
Histidine--tRNA ligase = molecular target: T1, Histidine--tRNA ligase (Leishmania infantum, UniProt A4I591); test: Leishmania infantum Histidine tRNA synthetase (LdHisRS); type: functional
T1 sequence (A4I591 whole entry): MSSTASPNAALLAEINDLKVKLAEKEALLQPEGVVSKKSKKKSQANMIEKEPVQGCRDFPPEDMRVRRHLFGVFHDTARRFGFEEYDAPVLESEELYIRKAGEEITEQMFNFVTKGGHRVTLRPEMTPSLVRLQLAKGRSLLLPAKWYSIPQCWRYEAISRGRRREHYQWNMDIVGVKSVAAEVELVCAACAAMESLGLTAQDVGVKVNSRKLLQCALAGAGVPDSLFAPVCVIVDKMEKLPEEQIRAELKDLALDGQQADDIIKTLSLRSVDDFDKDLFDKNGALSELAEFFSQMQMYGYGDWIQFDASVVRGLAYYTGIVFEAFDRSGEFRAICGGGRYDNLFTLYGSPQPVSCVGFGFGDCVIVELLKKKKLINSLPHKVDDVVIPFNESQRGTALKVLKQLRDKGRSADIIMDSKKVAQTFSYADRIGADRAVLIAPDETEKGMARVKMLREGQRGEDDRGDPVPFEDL

Chain of Polyketide synthase Pks13 (I6X8D2 whole entry): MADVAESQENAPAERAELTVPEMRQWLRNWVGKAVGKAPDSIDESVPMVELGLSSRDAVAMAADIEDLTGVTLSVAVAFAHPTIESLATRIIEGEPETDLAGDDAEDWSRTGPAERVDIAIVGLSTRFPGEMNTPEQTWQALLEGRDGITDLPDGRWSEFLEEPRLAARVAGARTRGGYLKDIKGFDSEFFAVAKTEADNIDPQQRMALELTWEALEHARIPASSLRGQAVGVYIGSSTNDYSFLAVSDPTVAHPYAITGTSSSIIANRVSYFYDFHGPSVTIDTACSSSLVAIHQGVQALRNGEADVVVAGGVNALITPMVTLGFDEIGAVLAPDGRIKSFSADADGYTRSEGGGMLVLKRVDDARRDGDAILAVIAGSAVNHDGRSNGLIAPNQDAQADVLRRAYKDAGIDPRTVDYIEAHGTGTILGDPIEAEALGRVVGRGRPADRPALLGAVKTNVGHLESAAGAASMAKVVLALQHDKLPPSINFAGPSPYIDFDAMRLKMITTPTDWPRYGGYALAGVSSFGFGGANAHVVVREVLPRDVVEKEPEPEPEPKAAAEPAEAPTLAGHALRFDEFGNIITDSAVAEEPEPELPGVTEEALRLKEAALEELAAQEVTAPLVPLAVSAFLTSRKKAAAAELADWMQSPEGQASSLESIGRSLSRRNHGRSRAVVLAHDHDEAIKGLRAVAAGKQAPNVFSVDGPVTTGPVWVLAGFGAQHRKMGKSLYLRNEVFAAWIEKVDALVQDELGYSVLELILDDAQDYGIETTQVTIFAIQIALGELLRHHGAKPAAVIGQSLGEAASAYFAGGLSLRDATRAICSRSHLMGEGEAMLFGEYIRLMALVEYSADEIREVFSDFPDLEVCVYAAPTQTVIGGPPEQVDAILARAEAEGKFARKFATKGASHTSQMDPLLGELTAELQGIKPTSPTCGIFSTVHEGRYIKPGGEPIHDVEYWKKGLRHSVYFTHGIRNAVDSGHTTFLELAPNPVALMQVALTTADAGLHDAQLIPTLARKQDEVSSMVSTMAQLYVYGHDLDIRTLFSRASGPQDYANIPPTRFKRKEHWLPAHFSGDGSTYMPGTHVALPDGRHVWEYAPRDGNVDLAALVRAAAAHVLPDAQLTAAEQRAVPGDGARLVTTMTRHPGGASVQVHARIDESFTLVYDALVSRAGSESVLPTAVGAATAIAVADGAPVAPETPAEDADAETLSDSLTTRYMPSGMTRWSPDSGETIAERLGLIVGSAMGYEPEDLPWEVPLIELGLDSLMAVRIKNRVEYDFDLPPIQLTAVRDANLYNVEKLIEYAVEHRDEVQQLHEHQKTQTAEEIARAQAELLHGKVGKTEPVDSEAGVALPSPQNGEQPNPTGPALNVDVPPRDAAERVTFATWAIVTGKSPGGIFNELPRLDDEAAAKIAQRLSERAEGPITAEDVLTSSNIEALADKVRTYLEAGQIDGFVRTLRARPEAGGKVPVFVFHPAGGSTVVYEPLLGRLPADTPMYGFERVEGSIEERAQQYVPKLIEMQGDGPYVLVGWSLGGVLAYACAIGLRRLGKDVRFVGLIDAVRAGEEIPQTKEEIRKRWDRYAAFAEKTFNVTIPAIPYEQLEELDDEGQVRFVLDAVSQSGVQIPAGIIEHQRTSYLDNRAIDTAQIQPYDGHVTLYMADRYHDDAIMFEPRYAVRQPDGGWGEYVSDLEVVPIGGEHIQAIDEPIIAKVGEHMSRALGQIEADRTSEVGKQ
Chain of Tryptophan--tRNA ligase (P9WFT3 whole entry): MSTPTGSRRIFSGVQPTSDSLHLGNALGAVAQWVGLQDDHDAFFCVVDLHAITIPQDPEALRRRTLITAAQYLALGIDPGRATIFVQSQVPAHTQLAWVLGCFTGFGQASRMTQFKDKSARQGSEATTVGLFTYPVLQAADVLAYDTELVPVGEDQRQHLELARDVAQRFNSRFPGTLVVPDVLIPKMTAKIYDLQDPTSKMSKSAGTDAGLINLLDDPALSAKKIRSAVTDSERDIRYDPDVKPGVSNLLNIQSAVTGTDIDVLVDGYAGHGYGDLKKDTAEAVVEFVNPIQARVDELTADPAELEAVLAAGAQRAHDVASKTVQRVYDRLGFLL
Chain of ClpP1P2 (P9WPC5 whole entry): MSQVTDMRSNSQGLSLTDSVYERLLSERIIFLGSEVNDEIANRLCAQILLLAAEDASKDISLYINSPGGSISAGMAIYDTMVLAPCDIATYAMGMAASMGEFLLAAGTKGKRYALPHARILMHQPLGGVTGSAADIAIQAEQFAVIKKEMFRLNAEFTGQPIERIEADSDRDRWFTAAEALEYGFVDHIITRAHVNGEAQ
Chain of ClpP1P2 (P9WPC3 whole entry): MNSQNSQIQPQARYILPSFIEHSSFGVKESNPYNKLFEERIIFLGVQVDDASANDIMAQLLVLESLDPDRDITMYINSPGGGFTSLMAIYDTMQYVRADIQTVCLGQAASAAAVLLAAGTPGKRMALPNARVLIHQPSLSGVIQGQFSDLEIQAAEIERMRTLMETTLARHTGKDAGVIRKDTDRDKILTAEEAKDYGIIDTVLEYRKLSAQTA

SMILES	IC50 [1]	IC50 (ClpP1P2) [µM]	other results
CNC(=O)c1cc2c(nc1NCC(C)C)CCN(CC1CC1)CC2	21 µM and 28.8 µM	> 100	–
CC(C)Nc1nc2c(cc1C(=O)NCC1CC1)CCN(S(C)(=O)=O)CC2	20.5 µM and 23.8 µM	> 100	–
CC(=O)N1CCC(c2cc(C(F)(F)F)nc3nccn23)CC1	16.7 µM and 13.5 µM	> 100	–
O=C(c1ccc(COc2ccc(Cl)cc2)o1)N1N=CCC1(O)C(F)(F)F (stereo not given)	17.3 µM and 24.2 µM	–	pIC50 [2]: 5.524; IC50 [2]: 3.1 µM
N#Cc1nccnc1N1CCC(CSc2ccccc2)C1 (stereo not given)	18.6 µM and 20.2 µM	–	IC50 [3]: 4.96 µM; IC50 [4]: 18.9 µM
Cc1nn(C)cc1C1=NS(=O)(=O)N(C)C(C(=O)Nc2ccc(Br)cc2)=C1	28.6 µM and 36.6 µM	–	pIC50 (Plasmodium falciparum): 6.699; IC50 (Plasmodium falciparum): 0.238 µM
Cn1nccc1CCC(=O)N1CCCC(c2cnccn2)C1 (stereo not given)	> 100 µM	–	IC50 (Tryptophan--tRNA ligase): > 195 µM
CCCOc1ccc(Cl)cc1CNc1ncnc2oc(C)nc12	12.3 µM and 19.8 µM	–	IC50 [2]: 12.6 µM; IC50 [3]: > 50.1 µM; IC50 [4]: > 50.1 µM
COc1cccc(CN2CCC3(COCc4cnc(N(C)C)nc43)C2)c1 (stereo not given)	> 100 µM	–	IC50 [3]: > 50.1 µM; IC50 [4]: > 50.1 µM
CS(=O)(=O)c1ccc(-c2nc(C(=O)N3CCCC3)n3ccccc23)cc1	12.3 µM and 12.9 µM	> 100	–
Cc1nc(C)n(C2CCCN(C(=O)c3nc(C)n4ccccc34)C2)n1 (stereo not given)	8.78 µM and 12.7 µM	> 100	–
Cc1nc(-c2ccc(Cl)s2)sc1C(=O)NCCCC(N)=O	> 100 µM and 15.1 µM	> 100	–
Cc1cc(C)c2cc(CNC(C)C)c3nn(C)c(=O)n3c2c1	17 µM and 18.4 µM	> 100	–
COc1ccccc1-c1ccnc2nc(N3CCCCC3)[nH]c(=O)c12	10.9 µM and 13.9 µM	> 100	–
O=c1[nH]c(NCCCO)nc2c1C1(CCCC1)Cc1ccccc1-2	24.5 µM and 29.7 µM	> 100	–
COC(=O)CNC(=O)c1nc(-c2ccccc2OC)c2cnccn12	79.6 µM and > 100 µM	> 100	–
O=c1ccc2c(n1CC1CCOCC1)CCN(Cc1ccoc1)CC2	> 100 µM	> 100	–
CC(O)CN1CCC(CNCc2c[nH]nc2C(C)(C)C)CC1 (stereo not given)	> 100 µM	–	IC50 [3]: 35.4 µM; IC50 [4]: 45.6 µM
Cc1nc(-c2ccc(Cl)s2)sc1C(=O)NC(C)(C)C(N)=O	> 100 µM and 21.1 µM	> 100	–
COCc1noc(-c2ccc(N(C)Cc3ccc(C)o3)nc2)n1	> 100 µM	–	IC50 [3]: 18.1 µM
CCOCCOCc1cccc(CNc2cncc(-n3cccn3)n2)c1	29.9 µM and 19 µM	> 100	–
O=C(c1ccccc1)C1CCN(c2cncc(-n3cccn3)n2)CC1	29 µM and 33.8 µM	–	IC50 (Leishmania donovani): > 50.1 µM
CC(CN1CCCC1=O)NC(=O)c1ccc(-c2ccco2)[nH]c1=O (stereo not given)	7.52 µM and 13.7 µM	> 100	–
COCC(=O)N1CCC(c2cc(C(F)(F)F)n3ccnc3n2)CC1	28.4 µM and 36.3 µM	> 100	–
CNC(=O)c1cc2c(nc1NC(C)C)CCNCC2	60.3 µM and 25 µM	> 100	–
CCc1n[nH]c(C2CN(C(=O)c3nc(C)n4ccccc34)CCO2)n1 (stereo not given)	18.2 µM and 11.7 µM	> 100	–

SMILES	IC50 [1]	IC50 (ClpP1P2) [µM]	other results
CNC(=O)c1cc2c(nc1NCC(C)C)CCN(c1ccncn1)CC2	25.7 µM and 29.5 µM	> 100	–
CCc1nc(C2CCCN2C(=O)c2nc(C)n3ccccc23)no1 (stereo not given)	8.2 µM and 6.66 µM	> 100	–
COCCNc1nc2c(c(NCC3CCOC3)n1)CCNCC2 (stereo not given)	> 100 µM	–	IC50 (Leishmania donovani): > 50.1 µM
CS(=O)(=O)c1ccc(-c2cc(C3CC3)c(C#N)c(N)n2)cc1	10.4 µM and 11.5 µM	> 100	–
CNC(=O)COc1ccc(CNc2cncc(-n3cccn3)n2)cc1	11.8 µM and > 100 µM	> 100	–
CCn1cc(-c2cc(-c3ccn(C)c3)nc(N)c2C#N)cc1C#N	51.8 µM and 43.6 µM	> 100	–
CC(C)c1cc(N2CCC(N)CC2)n2nccc2n1	> 100 µM	–	IC50 (Leishmania donovani): > 50.1 µM
CNC(=O)c1cc2c(nc1NCC(C)C)CCN(S(C)(=O)=O)CC2	> 100 µM and 16.4 µM	> 100	–
O=c1[nH]c(NC2CCCC2)nc2nccc(-c3ccco3)c12	> 100 µM	> 100	–
CC(C)Nc1nc2c(cc1C(=O)NCC1CC1)CCN(CC1CC1)CC2	14.7 µM and 35.6 µM	> 100	–
CC(C)Nc1nc2c(cc1C(=O)NCC1CC1)CCN(C)CC2	30.6 µM and 15.6 µM	> 100	–
Cc1csc(CNc2cnc3c(c2)c(C)nn3C)n1	7.6 µM and 15.2 µM	> 100	–
CC(C)Nc1nc2c(cc1C(=O)NCC1CC1)CCNCC2	19.7 µM and 19.3 µM	> 100	–
Cc1nc(C(=O)N(C)CC(F)(F)C(F)(F)F)c2ccccn12	> 57.5 µM and 27.2 µM	> 100	–
CCOc1cc(C(=O)n2cc(C)cn2)cc(OCC)c1OCC	19.9 µM and 11.2 µM	–	IC50 [3]: > 50.1 µM; IC50 [4]: 29.7 µM
NC(=O)c1ccccc1-n1cc(-c2cccc(C(=O)O)c2)cn1	> 100 µM	–	IC50 (Histidine--tRNA ligase): 88.1 µM and > 100 µM
COc1ccc(CC(C)Nc2cccc(SC)c2)cc1 (stereo not given)	24.5 µM and 22 µM	–	IC50 [3]: 45.4 µM; IC50 [4]: > 50.1 µM
NS(=O)(=O)Cc1ccc(CNc2cncc(-n3cccn3)n2)cc1	19.4 µM and > 100 µM	> 100	–
CCC1(CC)Cc2ccccc2-c2nc(NCCCO)[nH]c(=O)c21	21.9 µM and 23.7 µM	> 100	–
CNC(=O)c1cc2c(nc1NCC1CC1)CCNCC2	72 µM and 24.7 µM	> 100	–
COc1ccc(CCC(C)Nc2cccc(SC)c2)cc1 (stereo not given)	23 µM and 23.6 µM	–	IC50 [3]: 14.3 µM; IC50 [4]: 14.1 µM
CNC(=O)c1cc2c(nc1NCC1CC1)CCN(S(C)(=O)=O)CC2	14.8 µM and 22.2 µM	> 100	–
Cn1c(Cn2ncc(N3CCCCC3)cc2=O)nc2ccccc21	> 100 µM	> 100	–
Cc1ccc(C(=O)N(C)Cc2cc(C)on2)cn1	> 100 µM	> 100	–
CC(C)c1cc(CN2CCC(CC(=O)O)CC2)no1	12.3 µM and 7.76 µM	–	IC50 (Tryptophan--tRNA ligase): > 195 µM
O=C(O)c1cn(-c2ccccn2)c(=O)c2ccccc12	8.93 µM and 20.5 µM	> 100	–

SMILES	IC50 [1]	IC50 (ClpP1P2) [µM]	other results
CCc1[nH]c2c(CNc3nc(C)cc(NC)n3)cc(C)cc2c1C	> 100 µM	–	pIC50 (Plasmodium falciparum): 6.194; IC50 (Plasmodium falciparum): 0.657 µM; IC50 [3]: 30.7 µM; IC50 [4]: 23.7 µM
CCOC(=O)N1CCN(C(=O)C2CC(=O)N(c3ccccc3Br)C2)CC1 (stereo not given)	19.4 µM and 22.4 µM	–	IC50 [3]: 9.89 µM; IC50 [4]: 39.8 µM
CNS(=O)(=O)c1csc(C(=O)N(C)Cc2ccccc2C)c1	> 100 µM	–	IC50 (Tryptophan--tRNA ligase): > 195 µM
CC(C)(CO)CNC(=O)c1cc(-c2cc[nH]n2)n2ccccc12	22.5 µM and 17.5 µM	> 100	–
CC(C)N(CC(N)=O)C(=O)c1cnc(-c2ccc3c(c2)OCO3)s1	11.1 µM and 12.4 µM	> 100	–
CN(C)C(=O)c1cnc(-c2ccc3c(c2)OCO3)s1	11.1 µM and 8.56 µM	> 100	–
Cn1cnc(-c2nc(C(=O)NC3CC3)c3ccccn23)c1	73.2 µM and 16.1 µM	> 100	–
CNC(=O)N1CCc2cc(C(=O)NCC3CC3)c(NC(C)C)nc2CC1	10.7 µM and 18.7 µM	> 100	–
CN(C)S(=O)(=O)c1ccc(-c2nc(C#N)c(NC3CC3)o2)o1	12.2 µM and 13.6 µM	> 100	–
COc1cnc(N2CCN(C)CC2)nc1-c1ccnn1C	23.7 µM and 24.9 µM	> 100	–
CCCn1c(N2CCCC2)nc2c(C)nn(C)c2c1=O	> 100 µM	–	IC50 [2]: > 50.1 µM
Cc1nc2c(Nc3cccc(C#N)c3)nc(N)nc2n1C	> 100 µM	–	IC50 [3]: 4.14 µM; IC50 [4]: 3.75 µM
CC(C)(C)Nc1nc(-c2cccnc2)c(-c2ccnc(NCCO)n2)s1	> 100 µM	–	IC50 [2]: 5.53 µM
COCc1ccc(CNc2cncc(-n3cccn3)n2)cc1	> 57.5 µM and 18.9 µM	> 100	–
CN1CCC(NC(=O)c2cc(F)cc(Cl)c2O)C1=O (stereo not given)	40.1 µM and 21.4 µM	> 100	–
COC(=O)CNC(=O)c1sc(-c2ccc(Cl)s2)nc1C	22.3 µM and > 100 µM	> 100	–
CCN1CCC(N[C@@H]2CC[C@@H]2NC(=O)Cc2csc(C)n2)CC1	> 100 µM	–	–
O=C(c1cc2cc(F)ccc2[nH]1)N1CCC(Nc2ccc(F)cc2)CC1	> 100 µM and 12.6 µM	–	–
Cc1cccc(-c2ccc(C(=O)NCC(C)(C)C(N)=O)c(=O)[nH]2)c1	25 µM and 32 µM	–	–
CN(C)CC(=O)N1Cc2nc(C(=O)NCc3ccccc3)oc2C1	> 100 µM	–	–
CN(C[C@@H]1CCC[C@@H]2CN(c3ncccn3)C[C@@H]21)C1CC1	> 100 µM	–	–
Cc1cccc(-n2nnnc2C(C)(C)Nc2ccccc2C)c1	13.8 µM and 11.7 µM	–	–
Cn1cnc(-c2nc(C(=O)NCCN3CCOCC3)c3ccccn23)c1	15.6 µM and 34.1 µM	> 100	–
CN(Cc1ccc(N2CCCCC2)cc1)Cc1noc(C(C)(C)C)n1	> 100 µM	–	–
